Legend:
Type in all cases: functional
Details in all cases: read-out: Activity
BT-549 = assay: Cytotoxicity against human BT-549 cells assessed as cell viability at 10 uM incubated for 48 hrs by sulforhodamine B assay relative to control
M14 = assay: Cytotoxicity against human M14 cells assessed as cell viability at 10 uM incubated for 48 hrs by sulforhodamine B assay relative to control
HCC 2998 = assay: Cytotoxicity against human HCC 2998 cells assessed as cell viability at 10 uM incubated for 48 hrs by sulforhodamine B assay relative to control
A549 = assay: Cytotoxicity against human A549 cells assessed as cell viability at 10 uM incubated for 48 hrs by sulforhodamine B assay relative to control
SNB-75 = assay: Cytotoxicity against human SNB-75 cells assessed as cell viability at 10 uM incubated for 48 hrs by sulforhodamine B assay relative to control
SR = assay: Cytotoxicity against human SR cells assessed as cell viability at 10 uM incubated for 48 hrs by sulforhodamine B assay relative to control
NCI/ADR-RES = assay: Cytotoxicity against human NCI/ADR-RES cells assessed as cell viability at 10 uM incubated for 48 hrs by sulforhodamine B assay relative to control
NCI-H23 = assay: Cytotoxicity against human NCI-H23 cells assessed as cell viability at 10 uM incubated for 48 hrs by sulforhodamine B assay relative to control
MDA-MB-468 = assay: Cytotoxicity against human MDA-MB-468 cells assessed as cell viability at 10 uM incubated for 48 hrs by sulforhodamine B assay relative to control
T47D = assay: Cytotoxicity against human T47D cells assessed as cell viability at 10 uM incubated for 48 hrs by sulforhodamine B assay relative to control
786-0 = assay: Cytotoxicity against human 786-0 cells assessed as cell viability at 10 uM incubated for 48 hrs by sulforhodamine B assay relative to control
SK-MEL-5 = assay: Cytotoxicity against human SK-MEL-5 cells assessed as cell viability at 10 uM incubated for 48 hrs by sulforhodamine B assay relative to control
OVCAR-8 = assay: Cytotoxicity against human OVCAR-8 cells assessed as cell viability at 10 uM incubated for 48 hrs by sulforhodamine B assay relative to control
SK-MEL-2 = assay: Cytotoxicity against human SK-MEL-2 cells assessed as cell viability at 10 uM incubated for 48 hrs by sulforhodamine B assay relative to control
NCI-H322M = assay: Cytotoxicity against human NCI-H322M cells assessed as cell viability at 10 uM incubated for 48 hrs by sulforhodamine B assay relative to control
TK-10 = assay: Cytotoxicity against human TK-10 cells assessed as cell viability at 10 uM incubated for 48 hrs by sulforhodamine B assay relative to control
Hs-578T = assay: Cytotoxicity against human HS-578T cells assessed as cell viability at 10 uM incubated for 48 hrs by sulforhodamine B assay relative to control
HL-60(TB) = assay: Cytotoxicity against human HL-60(TB) cells assessed as cell viability at 10 uM incubated for 48 hrs by sulforhodamine B assay relative to control
CCRF-CEM = assay: Cytotoxicity against human CCRF-CEM cells assessed as cell viability at 10 uM incubated for 48 hrs by sulforhodamine B assay relative to control
U-251 = assay: Cytotoxicity against human U-251 cells assessed as cell viability at 10 uM incubated for 48 hrs by sulforhodamine B assay relative to control
NCI-H460 = assay: Cytotoxicity against human NCI-H460 cells assessed as cell viability at 10 uM incubated for 48 hrs by sulforhodamine B assay relative to control
Malme-3M = assay: Cytotoxicity against human Malme-3M cells assessed as cell viability at 10 uM incubated for 48 hrs by sulforhodamine B assay relative to control
K562 = assay: Cytotoxicity against human K562 cells assessed as cell viability at 10 uM incubated for 48 hrs by sulforhodamine B assay relative to control
SF-539 = assay: Cytotoxicity against human SF-539 cells assessed as cell viability at 10 uM incubated for 48 hrs by sulforhodamine B assay relative to control
HCT-15 = assay: Cytotoxicity against human HCT-15 cells assessed as cell viability at 10 uM incubated for 48 hrs by sulforhodamine B assay relative to control
SF-295 = assay: Cytotoxicity against human SF-295 cells assessed as cell viability at 10 uM incubated for 48 hrs by sulforhodamine B assay relative to control
MDA-MB-231 = assay: Cytotoxicity against human MDA-MB-231 cells assessed as cell viability at 10 uM incubated for 48 hrs by sulforhodamine B assay relative to control
COLO 205 = assay: Cytotoxicity against human COLO 205 cells assessed as cell viability at 10 uM incubated for 48 hrs by sulforhodamine B assay relative to control
RPMI-8226 = assay: Cytotoxicity against human RPMI-8226 cells assessed as cell viability at 10 uM incubated for 48 hrs by sulforhodamine B assay relative to control
SW-620 = assay: Cytotoxicity against human SW-620 cells assessed as cell viability at 10 uM incubated for 48 hrs by sulforhodamine B assay relative to control
SF-268 = assay: Cytotoxicity against human SF-268 cells assessed as cell viability at 10 uM incubated for 48 hrs by sulforhodamine B assay relative to control
NCI-H226 = assay: Cytotoxicity against human NCI-H226 cells assessed as cell viability at 10 uM incubated for 48 hrs by sulforhodamine B assay relative to control
OVCAR-5 = assay: Cytotoxicity against human OVCAR-5 cells assessed as cell viability at 10 uM incubated for 48 hrs by sulforhodamine B assay relative to control
UO-31 = assay: Cytotoxicity against human UO-31 cells assessed as cell viability at 10 uM incubated for 48 hrs by sulforhodamine B assay relative to control
MDA-MB-435 = assay: Cytotoxicity against human MDA-MB-435 cells assessed as cell viability at 10 uM incubated for 48 hrs by sulforhodamine B assay relative to control
DU-145 = assay: Cytotoxicity against human DU-145 cells assessed as cell viability at 10 uM incubated for 48 hrs by sulforhodamine B assay relative to control
UACC-257 = assay: Cytotoxicity against human UACC-257 cells assessed as cell viability at 10 uM incubated for 48 hrs by sulforhodamine B assay relative to control
ACHN = assay: Cytotoxicity against human ACHN cells assessed as cell viability at 10 uM incubated for 48 hrs by sulforhodamine B assay relative to control
SK-OV-3 = assay: Cytotoxicity against human SK-OV-3 cells assessed as cell viability at 10 uM incubated for 48 hrs by sulforhodamine B assay relative to control
IGROV-1 = assay: Cytotoxicity against human IGROV-1 cells assessed as cell viability at 10 uM incubated for 48 hrs by sulforhodamine B assay relative to control

Structure (SMILES) | viability at 10 µM (BT-549) [%] | viability at 10 µM (M14) [%] | viability at 10 µM (HCC 2998) [%] | viability at 10 µM (A549) [%] | viability at 10 µM (SNB-75) [%] | viability at 10 µM (SR) [%] | viability at 10 µM (NCI/ADR-RES) [%] | viability at 10 µM (NCI-H23) [%] | viability at 10 µM (MDA-MB-468) [%] | viability at 10 µM (T47D) [%] | viability at 10 µM (786-0) [%] | viability at 10 µM (SK-MEL-5) [%] | viability at 10 µM (OVCAR-8) [%] | viability at 10 µM (SK-MEL-2) [%] | viability at 10 µM (NCI-H322M) [%] | viability at 10 µM (TK-10) [%] | viability at 10 µM (Hs-578T) [%] | viability at 10 µM (HL-60(TB)) [%] | viability at 10 µM (CCRF-CEM) [%] | viability at 10 µM (U-251) [%] | also measured
O=S(=O)(NCCCNc1nccc(-c2c(-c3cccc(F)c3)nc3sccn23)n1)c1ccc(Br)cc1 | 64 | 48.1 | 96.9 | 55.1 | 88.6 | 78.1 | 34.4 | 57.4 | 32.3 | 13.7 | 73.5 | 21.2 | 28 | 61.4 | 81 | 74.8 | 71.7 | 75.9 | 36.8 | 76.7 | viability at 10 µM (NCI-H460): 60.5%; viability at 10 µM (Malme-3M): 69.4%; viability at 10 µM (K562): 25.4%; viability at 10 µM (SF-539): 98%; viability at 10 µM (HCT-15): 26.4%; viability at 10 µM (SF-295): 64.2%; viability at 10 µM (MDA-MB-231): 76.4%; viability at 10 µM (COLO 205): 33.5%; viability at 10 µM (RPMI-8226): 39.4%; viability at 10 µM (SW-620): 77.6%; viability at 10 µM (SF-268): 60.6%; viability at 10 µM (NCI-H226): 32.7%; viability at 10 µM (OVCAR-5): 110%; viability at 10 µM (UO-31): 31.6%; viability at 10 µM (MDA-MB-435): 31.6%; viability at 10 µM (DU-145): 61.9%; viability at 10 µM (UACC-257): 62.4%; viability at 10 µM (ACHN): 50.3%; viability at 10 µM (SK-OV-3): 80.1%; viability at 10 µM (IGROV-1): 24.4%
O=C(NCCCNc1nccc(-c2c(-c3cccc(F)c3)nc3sccn23)n1)c1ccc(C(F)(F)F)cc1 | 83.4 | 82.8 | 112 | 69 | 82.6 | 86.8 | 74.7 | 95.5 | 76.6 | 62.6 | 58.9 | 75.3 | 73.9 | 98.8 | 90.3 | 74 | 75.7 | 115 | 89.1 | 83 | viability at 10 µM (NCI-H460): 92.1%; viability at 10 µM (Malme-3M): 121%; viability at 10 µM (K562): 66.7%; viability at 10 µM (SF-539): 104%; viability at 10 µM (HCT-15): 54.2%; viability at 10 µM (SF-295): 87.5%; viability at 10 µM (MDA-MB-231): 89.1%; viability at 10 µM (COLO 205): 74.8%; viability at 10 µM (RPMI-8226): 96.8%; viability at 10 µM (SW-620): 111%; viability at 10 µM (SF-268): 67.8%; viability at 10 µM (NCI-H226): 78.8%; viability at 10 µM (OVCAR-5): 126%; viability at 10 µM (UO-31): 35.3%; viability at 10 µM (MDA-MB-435): 68.7%; viability at 10 µM (DU-145): 81.3%; viability at 10 µM (UACC-257): 106%; viability at 10 µM (ACHN): 64.5%; viability at 10 µM (SK-OV-3): 69%; viability at 10 µM (IGROV-1): 41.8%
O=S(=O)(NCCNc1nccc(-c2c(-c3cccc(F)c3)nc3sccn23)n1)c1cccc2ccccc12 | 104 | 107 | 131 | 88 | 92.3 | 88.1 | 97.3 | 99.9 | 86.1 | 81.7 | 95.4 | 88.3 | 89.4 | 104 | 104 | 112 | 103 | 116 | 93.9 | 97.4 | viability at 10 µM (NCI-H460): 97.7%; viability at 10 µM (Malme-3M): 118%; viability at 10 µM (K562): 78.3%; viability at 10 µM (SF-539): 109%; viability at 10 µM (HCT-15): 83.6%; viability at 10 µM (SF-295): 106%; viability at 10 µM (MDA-MB-231): 95%; viability at 10 µM (COLO 205): 85%; viability at 10 µM (RPMI-8226): 83.9%; viability at 10 µM (SW-620): 115%; viability at 10 µM (SF-268): 85.6%; viability at 10 µM (NCI-H226): 94.1%; viability at 10 µM (OVCAR-5): 127%; viability at 10 µM (UO-31): 59.2%; viability at 10 µM (MDA-MB-435): 87.7%; viability at 10 µM (DU-145): 97.8%; viability at 10 µM (UACC-257): 107%; viability at 10 µM (ACHN): 80.1%; viability at 10 µM (SK-OV-3): 98.5%; viability at 10 µM (IGROV-1): 61%
O=S(=O)(NCCNc1nccc(-c2c(-c3cccc(F)c3)nc3sccn23)n1)c1ccc(Br)cc1 | 63.2 | 52.3 | 79.5 | 34.1 | 75.3 | 31.7 | 61.8 | 72.6 | 78.3 | 30.5 | 50.6 | 31.5 | 45.5 | 71.7 | 61 | 68.8 | 63.6 | 90.5 | 51 | 53.4 | viability at 10 µM (NCI-H460): 27.8%; viability at 10 µM (Malme-3M): 71.1%; viability at 10 µM (K562): 38.7%; viability at 10 µM (SF-539): 76.4%; viability at 10 µM (HCT-15): 29.2%; viability at 10 µM (SF-295): 58.7%; viability at 10 µM (MDA-MB-231): 69.7%; viability at 10 µM (COLO 205): 36.4%; viability at 10 µM (RPMI-8226): 58%; viability at 10 µM (SW-620): 54.8%; viability at 10 µM (SF-268): 53%; viability at 10 µM (NCI-H226): 41.2%; viability at 10 µM (OVCAR-5): 83.6%; viability at 10 µM (UO-31): 21.2%; viability at 10 µM (MDA-MB-435): 21.3%; viability at 10 µM (DU-145): 52.5%; viability at 10 µM (UACC-257): 82%; viability at 10 µM (ACHN): 30.2%; viability at 10 µM (SK-OV-3): 77.3%; viability at 10 µM (IGROV-1): 8.47%

Source: ChEMBL document CHEMBL4665642, “Anticancer profile of newly synthesized BRAF inhibitors possess 5-(pyrimidin-4-yl)imidazo[2,1-b]thiazole scaffold” (Bioorg Med Chem, 2019)
